Test results as given in US6999905B2, “Method for extracting significant signal, recording medium and program” (priority 2002, dated 2006).

How the values were obtained:
Format in all cases: cell-based
[1] = test system: Smooth muscle cells derived from rat aorta vessels; experiment: Potential changes of smooth muscle cells on a semiconductor substrate stimulated with norepinephrine (Example 7); settings: 10 μM norepinephrine; potential changes measured for 60 seconds; FIG. 15
Procedure: Smooth muscle cells derived from rat aorta vessels were cultured on a specially treated semiconductor substrate.
The semiconductor substrate has 100 through holes, each of which has a diameter of 5 μm with the pitch of the through holes being 30 μm, in an area of 1 mm^2. A surface of the semiconductor substrate was coated with 0.01% (w/v) collagen type I solution (Sigma C8919) at a density of 10 μg/cm^2, which was in turn allowed to react at 37° C. for 30 minutes, followed by air drying. Smooth muscle cells derived from rat aorta vessels were cultured on the substrate cleansed with sterilized water. After three days of the culture, the following experiment was conducted.
When measuring ion channel activity, the vessel smooth muscle cells were suctioned by applying a predetermined pressure from the rear side of the semiconductor substrate so that the cells were made to contact the semiconductor substrate. […] In an experimental system, the smooth muscle cells were stimulated with 10 μM norepinephrine, and potential changes were measured for 60 seconds. […] Note that the collection of time-series data was started 10 milliseconds after the start of the experiment, so that measured data was not extracted for the time lag. Thereafter, standard deviations were calculated every 100 milliseconds from the time-series data, thereby clearly extracting ion channel activities due to the stimulant. […]

[2] = test system: neuron prepared from Lymnaea stagnails; experiment: Electrical signal of a neuron under glutamate, average of standard deviations (Example 1); settings: 0, 0.1, 0.3, 1, 3, 10, 30, or 100 μM glutamate; standard deviation of 100 milliseconds; FIG. 6
Excerpt: FIG. 2 is a schematic diagram showing a configuration of an apparatus and steps used in a signal extracting method according to Example 1 of the present invention. The apparatus comprises a measurement section 101 for continuously measuring action potential generated from a neuron; a computer 100 incorporating a hard disk storing a program for executing a standard deviation calculation step 102 for calculating a standard deviation of measured data every predetermined time, an average calculation step 105 for calculating an average of standard deviation values output every predetermined time, and an activity calculation step 108 for calculating an ion channel activity from an average output from the average calculation step 105; and a data displaying section 110, such as CRT, for displaying the ion channel activity.
The apparatus was used to measure an electrical signal of a neuron which was actually prepared from Lymnaea stagnails where 0, 0.1, 0.3, 1, 3, 10, 30, or 100 μM glutamate was applied to the neuron. The resultant measured data spanning […] was divided into pieces of subdata spanning 100 milliseconds, for each of which a standard deviation was in turn calculated. The average of the standard deviations was plotted in FIG. 6. […]

[3] = test system: neuron prepared from Lymnaea stagnails; experiment: Extracellular recording of a neuron before and after glutamate, normal distribution of standard deviations (Example 2); settings: after application of 50 μM glutamate, before application 0.488
Excerpt: FIG. 3 is a schematic diagram showing a configuration of an apparatus and steps used in a signal extracting method according to Example 2 of the present invention. The apparatus comprises a measurement section 101 for continuously measuring action potential generated from a neuron; a computer 100 incorporating a hard disk storing a program for executing a standard deviation calculation step 102 for calculating a standard deviation of measured data every predetermined time, a normal distribution approximation step 103 for dividing a standard deviation group consisting of a plurality of resultant standard deviations into a plurality of classes having a predetermined width of standard deviation as a unit, and plotting each standard deviation on a coordinate system in which X axis represents the class and Y axis represents the number of the standard deviations existing in each class, an average and half-width calculation step 106 for approximating the resultant graph to a normal distribution, and calculating the average and half-width of the resultant normal distribution, and an activity categorization step 109 for categorizing an ion channel activity based on the resultant average and half-width; and a data displaying section 110, such as CRT, for displaying the ion channel activity. […]

[4] = test system: neuron prepared from Lymnaea stagnails; experiment: Conventional intracellular recording of a neuron before and after glutamate, same signal processing (Example 2, FIG. 8); settings: after application of glutamate, before application 0.181
Excerpt: The curve to the left in FIG. 8 is a histogram of standard deviation values every 5 milliseconds before application of glutamate. The curve to the right in FIG. 8 is a histogram of standard deviation values every 5 milliseconds after the application of glutamate. As indicated in these figures, the averages and half-widths of graphs obtained by approximating the histograms, before and after the application of glutamate, to normal distributions are 0.181 and 0.041, respectively, before the application and 0.534 and 0.204, respectively, after the application. Comparing between the results of FIGS. 7 and 8, the result of the extracellular recording method is similar to that of the intracellular recording method.

[5] = test system: neuron prepared from Lymnaea stagnails

`NC[C@H](O)c1ccc(O)c(O)c1` [norepinephrine] was tested, and the “average of the normal distribution of standard deviations every 100 milliseconds (ion channel activities)” value [1] was “clearly shifted toward higher class values than when no drug was applied”.

With `N[C@@H](CCC(=O)O)C(=O)O` [glutamate] the “average of the standard deviations (ion channel activity)” value [2] was “dependent on glutamate concentration”, the “average of normal distribution of standard deviation values every 5 milliseconds” value [3] was 0.733 and the “average of normal distribution of standard deviation values every 5 milliseconds” value [4] was 0.534. For the same compound, the “average of the distribution of standard deviation values every 5 milliseconds” value [5] was “shifted toward the right along the horizontal axis”.

With `NC1=N[C@H](O)[C@H]2[C@H]3O[C@]4(O)O[C@@H]([C@@H](O)[C@@]2(N1)[C@@H]4O)[C@]3(O)CO` [TTX, tetrodotoxin] the “average of the distribution of standard deviation values every 5 milliseconds” value [5] was “shifted along the horizontal axis toward the left further than the control”.
